Blank lines part the entries; values can stand above or below the compound they belong to.
Tested on: 362531-283-R-J2-PDC complex spheroid viability
Experiment: Anticancer human tumor 362531-283-R-J2-PDC patient-derived colon adenocarcinoma cell line growth inhibition [RAS]
Conditions: for viability, T/C: stronger effect = lower value
Outline: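 Agents were tested in combination matrices in half-log decrements from a top concentration at or near clinical Cmax (10 microM if undetermined). Targets were multi-cell spheroids of tumour lines plus HUVEC and MSC stromal cells.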
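Note: spheroids exposed to the agents for 7 days before readout.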
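Throughout, for viability, T/C: luminescence viability as percent of DMSO vehicle control wells.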

IC50 (curve of first compound, second compound 0.0316 µM): > 300 nM
IC50 (curve of first compound, second compound 0.1 µM): > 300 nM
IC50 (curve of first compound, second compound 0.316 µM): > 300 nM
IC50 (curve of first compound, second compound 1 µM): > 300 nM
IC50 (curve of first compound, second compound 3.16 µM): > 300 nM
IC50 (curve of first compound, second compound 10 µM): > 300 nM
Compound: CC1(C)CCC(Nc2ncc(C(F)(F)F)c(-c3c[nH]c4c(P(C)(C)=O)c(C#N)ccc34)n2)CN1 (centres undefined) + C#Cc1c(F)ccc2cc(O)cc(-c3ncc4c(N5CC6CCC(C5)N6)nc(OCC56CCCN5CC(F)C6)nc4c3F)c12
viability, T/C (second compound 0.0316 µM, first compound 0.000949 µM): 97%
viability, T/C (second compound 0.0316 µM, first compound 0.003 µM): 95.6%
viability, T/C (second compound 0.0316 µM, first compound 0.00949 µM): 98.5%
viability, T/C (second compound 0.0316 µM, first compound 0.03 µM): 92.3%
viability, T/C (second compound 0.0316 µM, first compound 0.0949 µM): 107%
viability, T/C (second compound 0.0316 µM, first compound 0.3 µM): 114%
viability, T/C (second compound 0.1 µM, first compound 0.000949 µM): 107%
viability, T/C (second compound 0.1 µM, first compound 0.003 µM): 85.5%
viability, T/C (second compound 0.1 µM, first compound 0.00949 µM): 90.4%
viability, T/C (second compound 0.1 µM, first compound 0.03 µM): 95.8%
viability, T/C (second compound 0.1 µM, first compound 0.0949 µM): 101%
viability, T/C (second compound 0.1 µM, first compound 0.3 µM): 99.5%
viability, T/C (second compound 0.316 µM, first compound 0.000949 µM): 95.7%
viability, T/C (second compound 0.316 µM, first compound 0.003 µM): 88.2%
viability, T/C (second compound 0.316 µM, first compound 0.00949 µM): 88.8%
viability, T/C (second compound 0.316 µM, first compound 0.03 µM): 90.2%
viability, T/C (second compound 0.316 µM, first compound 0.0949 µM): 97.4%
viability, T/C (second compound 0.316 µM, first compound 0.3 µM): 93.8%
viability, T/C (second compound 1 µM, first compound 0.000949 µM): 80.5%
viability, T/C (second compound 1 µM, first compound 0.003 µM): 89.3%
viability, T/C (second compound 1 µM, first compound 0.00949 µM): 83.4%
viability, T/C (second compound 1 µM, first compound 0.03 µM): 93.5%
viability, T/C (second compound 1 µM, first compound 0.0949 µM): 80.9%
viability, T/C (second compound 1 µM, first compound 0.3 µM): 82.9%
viability, T/C (second compound 3.16 µM, first compound 0.000949 µM): 68.4%
viability, T/C (second compound 3.16 µM, first compound 0.003 µM): 65.9%
viability, T/C (second compound 3.16 µM, first compound 0.00949 µM): 70.9%
viability, T/C (second compound 3.16 µM, first compound 0.03 µM): 74%
viability, T/C (second compound 3.16 µM, first compound 0.0949 µM): 61.2%
viability, T/C (second compound 3.16 µM, first compound 0.3 µM): 71.1%
viability, T/C (second compound 10 µM, first compound 0.000949 µM): 56.4%
viability, T/C (second compound 10 µM, first compound 0.003 µM): 49.7%
viability, T/C (second compound 10 µM, first compound 0.00949 µM): 54.8%
viability, T/C (second compound 10 µM, first compound 0.03 µM): 55%
viability, T/C (second compound 10 µM, first compound 0.0949 µM): 41.4%
viability, T/C (second compound 10 µM, first compound 0.3 µM): 54.3%

IC50 (curve of compound): > 10000 nM
Compound: Cc1nc(N2CCC3(CC2)COC(C)C3N)c(CO)nc1Sc1ccnc(N)c1Cl (centres undefined)
viability, T/C (compound 0.0316 µM): 101% [middle of 4 runs]
viability, T/C (compound 0.1 µM): 107% [middle of 4 runs]
viability, T/C (compound 0.316 µM): 100% [middle of 4 runs]
viability, T/C (compound 1 µM): 88.8% [middle of 4 runs]
viability, T/C (compound 3.16 µM): 91.8% [middle of 4 runs]
viability, T/C (compound 10 µM): 80% [middle of 4 runs]

From PubChem BioAssay AID2060909 (Molecular Pharmacology Branch, DTP, NCI, 2025)
